From publication PMC7126875 (Bioorganic & Medicinal Chemistry Letters, 2007)

Columns and labels:
[1] = tested on: SARS-CoV Frankfurt-1 strain; assay type: cell-based
[2] = tested on: SARS-CoV Frankfurt-1 strain; assay type: cell-based; remark: listed apart in the source
Vero E6 cells = details: cited from earlier work
[3] = tested on: SARS-CoV Frankfurt-1 strain; details: cited from earlier work
[4] = tested on: SARS-CoV Frankfurt-1 strain; details: cited from earlier work; remark: listed apart in the source

## OC[C@H]1O[C@@H](n2cnc3c(Cl)ncnc32)[C@H](O)[C@@H]1O [Compound 1]
[1]
  concentration required to reduce the virus yield to one-hundredth of the control: approximately 20 μM

## OC[C@H]1O[C@@H](n2cnc3c(Cl)ncnc32)C[C@@H]1O [Compound 6]
[2]
  anti-SARS-CoV activity (in words): weak antiviral activity

## OC[C@@H]1C[C@@H](O)[C@H](n2cnc3c(Cl)ncnc32)O1 [Compound 7]
[2]
  anti-SARS-CoV activity (in words): weak antiviral activity

## OCC1CC(n2cnc3c(Cl)ncnc32)C1CO (stereo not shown) [Compound 10]
[2]
  anti-SARS-CoV activity (in words): almost no activity

## NC(=O)c1ncn([C@@H]2O[C@H](CO)[C@@H](O)[C@H]2O)c1O [Mizoribine]
Vero E6 cells
  CC50: > 700 µM
[3]
  concentration required to decrease the virus yield to one-tenth of the control: approximately 35 μM
[4]
  Antiviral index (50% toxic dose divided by 50% inhibitory dose): >52

## NC(=O)c1ncn([C@@H]2O[C@H](CO)[C@@H](O)[C@H]2O)n1 [Ribavirin]
Vero E6 cells
  CC50: > 850 µM
[3]
  concentration required to decrease the virus yield to one-tenth of the control: ~200 µM
[4]
  Antiviral index (50% toxic dose divided by 50% inhibitory dose): >10
